Measurements published in patent EP0364819A2, “LHRH analogs” (The Administrators of The Tulane Educational Fund, priority 1988, dated 1990).

Assays:
[1] = molecular target: T1, membrane receptors of rat pituitary (Rattus norvegicus, UniProt P30969); assay: Receptor binding to rat pituitary membranes with 125I-labeled [D-Trp6]LHRH; conditions: high affinity binding sites, pituitary of male rats, ¹²⁵l-labeled [D-Trp⁶]LHRH
T1 construct: membrane receptors of rat pituitary; from tissue; host or cells: rat pituitary membranes
T1 sequence (P30969 1-327): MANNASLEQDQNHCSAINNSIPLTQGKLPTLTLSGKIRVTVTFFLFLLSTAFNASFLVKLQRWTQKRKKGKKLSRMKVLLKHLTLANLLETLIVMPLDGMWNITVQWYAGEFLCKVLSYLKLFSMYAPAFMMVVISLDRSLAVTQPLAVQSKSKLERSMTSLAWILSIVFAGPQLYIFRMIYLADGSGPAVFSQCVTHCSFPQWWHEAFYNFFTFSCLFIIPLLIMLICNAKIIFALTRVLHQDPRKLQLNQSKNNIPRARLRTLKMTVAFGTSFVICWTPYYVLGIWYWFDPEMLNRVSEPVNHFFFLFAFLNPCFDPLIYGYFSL
Experimental: (§1) This is determined by using labelled LHRH and [D-Trp⁶]LHRH. The assay is carried out similarly to that described by T. Kadar et al., Proc. Natl. Acad. Sci. USA, 85, 890-894 (1988).
(§2) Table 2 presents the antiovulatory activity of the claimed compounds having LHRH-inhibiting properties. The inhibitory action was determined in vivo, in 4-day cycling rats as described [A. Corbin and C. W. Beattie, Endocr. Res. Commun., 2, 1-23 (1975)]. Affinities of the claimed compounds to membrane receptors of rat pituitary and human breast cancer cells are also given in Tables 1 and 2 as determined by using [[…],D-Trp⁶]LHRH.

[2] = molecular target: T2, membrane receptors of human breast cancer cells (Homo sapiens, UniProt P30968); assay: Receptor binding to human breast cancer cell membranes with 125I-labeled [D-Trp6]LHRH; conditions: high affinity binding sites, ¹²⁵l-labeled [D-Trp⁶]LHRH
T2 construct: human prostate and breast cancer cell membranes; endogenous in cells
T2 sequence (P30968 1-328): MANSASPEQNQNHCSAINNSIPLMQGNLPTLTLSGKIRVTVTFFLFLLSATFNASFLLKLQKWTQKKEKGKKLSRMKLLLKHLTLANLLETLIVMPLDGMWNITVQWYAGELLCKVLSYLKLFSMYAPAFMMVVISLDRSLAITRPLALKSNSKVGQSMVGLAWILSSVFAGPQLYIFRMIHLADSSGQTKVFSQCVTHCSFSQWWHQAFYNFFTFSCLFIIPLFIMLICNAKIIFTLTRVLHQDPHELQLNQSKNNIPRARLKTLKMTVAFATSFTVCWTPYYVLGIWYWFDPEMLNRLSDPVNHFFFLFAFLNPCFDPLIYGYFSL
Experimental: (c)Affinity for peptides to human prostate and breast cancer cell membranes.
as §1, §2

4-day cycling rats = assay: In vivo antiovulatory activity in 4-day cycling rats; conditions: 4-day cyclic rats
Experimental: This activity of the peptides is determined in 4-day-cycling rats as described [A. Corbin and C. W.Beattie, Endocr. Res. Commun. 2, 1-23(1975)].
as §2

[3] = test system: dispersed rat pituitary cell superfusion system; assay: LH release in dispersed rat pituitary cell superfusion system (LHRH agonistic activity); type: cell-based; conditions: peptide infused for 3 minutes at various concentration; LH released compared to that released by 3 nM LHRH
Experimental: The ability of compounds to influence LH release in vitro is assayed by using a superfused rat pituitary cell system [S. Vigh and A. V. Schally, Peptides, 5 Suppl.
The peptide was infused for 3 minutes at various concentration, and the amount of LH released was compared to that released by 3 nM LHRH.

[4] = Table 2, antagonistic analogues

Row | Substance | Binding affinity, Ka1, for membrane receptors of pituitary [1, 4] [nM-¹] | Binding affinity, Ka1, for membrane receptors of cancer cells [2, 4] [nM-¹] | Binding affinity, Ka1, for membrane receptors of pituitary ([1]; Table 1, agonistic analogues) [nM⁻¹] | Binding affinity, Ka1, for membrane receptors of cancer cells ([2]; Table 1, agonistic analogues) [nM⁻¹] | Hormonal activity* %Blockade of ovulation (4-day cycling rats; Dose 3 µg/rat) [%] | Hormonal activity* %Blockade of ovulation (4-day cycling rats; Dose 10 µg/rat) [%] | Hormonal activity* LH responses rel. to LHRH (= 1) [3]
1 | Ac-D-Nal(2)-D-Phe(4Cl)-D-Pal(3)-Ser-Arg-D-Lys[(Cu⁺⁺)(POL)₂(DL-A₂pr)]-Leu-Arg-Pro-D-Ala-NH₂ [XXIV] | 5.483 | 2.628 | – | – | 50 | – | –
2 | Ac-D-Nal(2)-D-Phe(4Cl)-D-Pal(3)-Ser-Arg-D-Lys[(Cu⁺⁺)(POLP)₂(DL-A₂pr)]-Leu-Arg-Pro-D-Ala-NH₂ [Example XX] | 5.250 | 2.436 | – | – | 80 | – | –
3 | Ac-D-Nal(2)D-Phe(4Cl)-D-Pal(3)-Ser-Arg-D-Lys[(Ni⁺⁺)(SAL)₂(DL-A₂pr)]-Leu-Arg-Pro-D-Ala-NH₂ [XIII] | 1.821 | 0.878 | – | – | – | – | –
4 | pGlu-His-Trp-Ser-Tyr-D-Lys [(Ni⁺⁺)(CISAL)₂(D-A₂pr)]-Leu-Arg-Pro-Gly-NH₂ [Example X] | – | – | 4.513 | 2.236 | – | – | 4
5 | pGlu-His-Trp-Ser-Tyr-D-Lys[(Cu²²)(CISAL)₂(DL-A₂pr)]-Leu-Arg-Pro-Gly-NH₂ [Example IX] | – | – | 8.625 | 3.995 | – | – | 10
6 | pGlu-His-Trp-Ser-Tyr-D-Lys[(Cu⁺⁺)(FUR)₂(DL-A₂pr)]-Leu-Arg-Pro-Gly-NH₂ [XVII] | – | – | 1.770 | 0.536 | – | – | 10

Second part, led by results:

Row | Binding affinity, Ka1, for membrane receptors of pituitary [1, 4] [nM-¹] | Binding affinity, Ka1, for membrane receptors of cancer cells [2, 4] [nM-¹] | Binding affinity, Ka1, for membrane receptors of pituitary ([1]; Table 1, agonistic analogues) [nM⁻¹] | Binding affinity, Ka1, for membrane receptors of cancer cells ([2]; Table 1, agonistic analogues) [nM⁻¹] | Substance | Hormonal activity* %Blockade of ovulation (4-day cycling rats; Dose 3 µg/rat) [%] | Hormonal activity* %Blockade of ovulation (4-day cycling rats; Dose 10 µg/rat) [%] | Hormonal activity* LH responses rel. to LHRH (= 1) [3]
7 | – | 0.192 | – | – | Ac-D-Nal(2)-D-Phe(4Cl)-D-Pal(3)-Ser-Arg-D-Lys[(Cu⁺⁺)(SAL)₂(A₂bu-Eac)]-Leu-Arg-Pro-D-Ala-NH₂ [XXVIII] | – | – | –
8 | – | 2.152 | – | – | Ac-D-Nal(2)-D-Phe(4Cl)-D-Pal(3)-Ser-Arg-D-Lys[(PtCl₂)-A₂bu-Eac)]-Leu-Arg-Pro-D-Ala-NH₂ [XXVII] | – | – | –
9 | 7.622 | 3.408 | – | – | Ac-D-Nal(2)-D-Phe(4Cl)-D-Trp-Ser-Arg-D-Lys[(Cu⁺⁺) (POL)₂(DL-A₂pr)]-Leu-Arg-Pro-D-Ala-NH₂ [Example XXIII] | – | 40 | –
10 | – | – | 10.989 | 5.096 | pGlu-His-Trp-Ser-Tyr-D-Lys[(Cu⁺⁺)(PEN) ₂(A₂pr)]-Leu-Arg-Pro-Gly-NH₂ [Example XXI] | – | – | 10.6
